Measured values as given in US11932609B1 (priority 2023, dated 2024).

Tested on: multidrug-resistant (MDR) strains of Mycobacterium tuberculosis
Assay type: cell-based
Details: MDR-TB, drug resistance at least to isoniazid and rifampicin; REMA, Middlebrook 7H9 broth, 8 days at 37° C. plus overnight with resazurin

For `CCOC(=O)C1=C(C)NC(Nc2ccc(Br)cc2C#N)=NC1c1ccc(F)cc1` (centres unmarked) [DHPM-KNV6, Ethyl 2-((4-bromo-2-cyanophenyl)amino)-4-(4-fluorophenyl)-6-methyl-1,4-dihydropyrimidine-5-carboxylate], the “Anti-tubercular activity against Mycobacterium tuberculosis MDR (MIC)” value was “No activity”.

In the case of `CCOC(=O)C1=C(C)NC(Nc2ccccc2I)=NC1c1ccc(F)cc1` (centres unmarked) [DHPM-KNV8, Ethyl 4-(4-fluorophenyl)-2-((2-iodophenyl)amino)-6-methyl-1,4-dihydropyrimidine-5-carboxylate], the “Anti-tubercular activity against Mycobacterium tuberculosis MDR (MIC)” value was “No activity”.
